Laboratory results reported in article PMC5651230, “TMC2 Modifies Permeation Properties of the Mechanoelectrical Transducer Channel in Early Postnatal Mouse Cochlear Outer Hair Cells” (Frontiers in Molecular Neuroscience, 2017).

What was measured:
[1] = system: T1, MET channel of Tmc2+/− outer hair cells (TMC1 and TMC2); experiment: whole-cell patch clamp of OHC, block of MET current (fluid jet), Hill fit; format: cell-based, Mus musculus; conditions: extracellular DHS, -81 mV, 1.3 mM Ca2+, pH 7.5, 20-25 °C; permeant open-channel pore blocker; native channel complex of Tmc2 heterozygous OHCs (P5-P6); read-out: KD
T1 construct: native MET channel complex in apical cochlear OHCs (P5-P6) of heterozygous control mice; mixture of TMC1 and TMC2 in unknown proportion; with LHFPL tetraspan subfamily member 5 protein; Transmembrane inner ear expressed protein

[2] = target: T2, MET channel of Tmc2−/− outer hair cells (TMC1-containing channel) (Mus musculus, UniProt Q8R4P5); experiment: as above; format: cell-based; conditions: extracellular DHS, -81 mV, 1.3 mM Ca2+, pH 7.5, 20-25 °C; permeant open-channel pore blocker; native channel complex of Tmc2 knockout OHCs (P5-P6); read-out: KD
T2 construct: native MET channel complex in apical cochlear OHCs (P5-P6) of Tmc2 knockout mice; TMC1 the remaining TMC; full composition not known; with LHFPL tetraspan subfamily member 5 protein; Transmembrane inner ear expressed protein
T2 sequence (Q8R4P5 1-757): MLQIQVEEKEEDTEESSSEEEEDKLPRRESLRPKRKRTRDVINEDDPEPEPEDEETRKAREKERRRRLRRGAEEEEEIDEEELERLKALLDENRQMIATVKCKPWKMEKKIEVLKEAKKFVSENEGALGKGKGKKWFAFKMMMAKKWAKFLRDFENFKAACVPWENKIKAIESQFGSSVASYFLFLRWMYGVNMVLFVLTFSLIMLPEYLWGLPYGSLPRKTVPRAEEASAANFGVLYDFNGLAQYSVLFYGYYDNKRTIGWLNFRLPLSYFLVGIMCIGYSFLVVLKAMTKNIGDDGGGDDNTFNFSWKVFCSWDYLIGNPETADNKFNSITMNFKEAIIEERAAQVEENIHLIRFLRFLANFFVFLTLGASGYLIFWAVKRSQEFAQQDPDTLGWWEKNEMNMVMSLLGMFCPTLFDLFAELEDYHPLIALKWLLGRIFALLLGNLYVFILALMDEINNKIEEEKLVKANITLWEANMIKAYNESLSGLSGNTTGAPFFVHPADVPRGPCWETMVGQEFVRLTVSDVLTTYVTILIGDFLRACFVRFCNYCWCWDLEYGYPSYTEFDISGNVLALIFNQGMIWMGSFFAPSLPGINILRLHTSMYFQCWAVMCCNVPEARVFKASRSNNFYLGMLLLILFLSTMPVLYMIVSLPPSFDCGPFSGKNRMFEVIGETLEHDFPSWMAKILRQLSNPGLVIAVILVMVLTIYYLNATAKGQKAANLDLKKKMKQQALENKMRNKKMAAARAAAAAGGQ

## CN[C@@H]1[C@H](O[C@H]2[C@H](O[C@H]3[C@H](O)[C@@H](O)[C@H](NC(=N)N)[C@@H](O)[C@@H]3NC(=N)N)O[C@@H](C)[C@]2(O)CO)O[C@@H](CO)[C@H](O)[C@H]1O [dihydrostreptomycin]
[1]
  IC50: 9.1 ± 0.4 µM
[2]
  IC50: 5.9 ± 0.2 µM
